{"source": "ChEMBL document CHEMBL2203286", "about": "“Synthesis and structure-activity relationship studies of cytotoxic vinorelbine amide analogues” (Bioorg Med Chem Lett, 2012)", "key": {"A549 [1]": {"test_system": "A549", "experiment": "Cytotoxicity against human A549 cells after 24 to 72 hrs by MTT assay", "assay_type": "functional, cell-based"}, "Mus musculus [2]": {"test_system": "Mus musculus", "experiment": "Toxicity in BALB/cA nude mouse xenografted with human A549 cells assessed as change in body weight at 9 mg/kg, iv once every seven days for three doses (reference value: 27.61 g)", "conditions": "in vivo"}, "A549 [3]": {"test_system": "A549", "experiment": "Antitumor activity against human A549 cells xenografted in BALB/cA nude mouse assessed as growth inhibition at 9 mg/kg, iv once every seven days for three doses relative to control", "conditions": "read-out: GI"}, "Mus musculus [4]": {"test_system": "Mus musculus", "experiment": "Toxicity in BALB/cA nude mouse xenografted with human A549 cells assessed as mortality at 9 mg/kg, iv […]", "assay_type": "organism-based", "design": "dose 9 mg/kg, route intravenous", "conditions": "in vivo"}, "A549 [5]": {"test_system": "A549", "experiment": "Ratio of navelbine IC50 to compound IC50 for human A549 cells", "assay_type": "functional"}}, "data": [{"smiles": "CCC1=C[C@@H]2CN(C1)Cc1c([nH]c3ccccc13)[C@@](C(=O)OC)(c1cc3c(cc1OC)N(C)[C@H]1[C@@](O)(CNC(=O)c4c(F)cccc4F)[C@H](OC(C)=O)[C@]4(CC)C=CCN5CC[C@]31[C@@H]54)C2", "values": [{"measurement": "IC50", "setting": "A549 [1]", "result": 0.0079, "unit": "µM"}]}, {"smiles": "CCC1=C[C@@H]2CN(C1)Cc1c([nH]c3ccccc13)[C@@](C(=O)OC)(c1cc3c(cc1OC)N(C)[C@H]1[C@@](O)(CNC(=O)c4ccccc4F)[C@H](OC(C)=O)[C@]4(CC)C=CCN5CC[C@]31[C@@H]54)C2", "values": [{"measurement": "IC50", "setting": "A549 [1]", "result": 0.0073, "unit": "µM"}]}, {"smiles": "CCC1=C[C@@H]2CN(C1)Cc1c([nH]c3ccccc13)[C@@](C(=O)OC)(c1cc3c(cc1OC)N(C)[C@H]1[C@@](O)(CNC(=O)c4ccc(C)cc4)[C@H](OC(C)=O)[C@]4(CC)C=CCN5CC[C@]31[C@@H]54)C2", "values": [{"measurement": "IC50", "setting": "A549 [1]", "result": 0.0153, "unit": "µM"}]}, {"smiles": "CCC1=C[C@@H]2CN(C1)Cc1c([nH]c3ccccc13)[C@@](C(=O)OC)(c1cc3c(cc1OC)N(C)[C@H]1[C@@](O)(CNC(=O)c4ccc(OC)c(OC)c4)[C@H](OC(C)=O)[C@]4(CC)C=CCN5CC[C@]31[C@@H]54)C2", "values": [{"measurement": "IC50", "setting": "A549 [1]", "result": 0.0065, "unit": "µM"}]}, {"smiles": "CCC(=O)NC[C@@]1(O)[C@H](OC(=O)CC)[C@]2(CC)C=CCN3CC[C@@]4(c5cc([C@@]6(C(=O)OC)C[C@@H]7C=C(CC)CN(Cc8c6[nH]c6ccccc86)C7)c(OC)cc5N(C)[C@@H]14)[C@@H]32", "values": [{"measurement": "IC50", "setting": "A549 [1]", "result": 0.012, "unit": "µM"}]}, {"smiles": "CCC1=C[C@@H]2CN(C1)Cc1c([nH]c3ccccc13)[C@@](C(=O)OC)(c1cc3c(cc1OC)N(C)[C@H]1[C@@](O)(C(=O)OC)[C@H](OC(C)=O)[C@]4(CC)C=CCN5CC[C@]31[C@@H]54)C2", "note": "[VINORELBINE]", "values": [{"measurement": "Activity", "setting": "Mus musculus [2]", "result": 26.22, "unit": "g"}, {"measurement": "IC50", "setting": "A549 [1]", "result": 0.009, "unit": "µM"}, {"measurement": "inhibition in vivo at 9 mg/kg", "setting": "A549 [3]", "result": 55.9, "unit": "%"}, {"measurement": "Activity", "setting": "Mus musculus [4]", "result": "Non-toxic"}]}, {"smiles": "CCC1=C[C@@H]2CN(C1)Cc1c([nH]c3ccccc13)[C@@](C(=O)OC)(c1cc3c(cc1OC)N(C)[C@H]1[C@@](O)(CNC(=O)c4ccc(F)cc4)[C@H](OC(C)=O)[C@]4(CC)C=CCN5CC[C@]31[C@@H]54)C2", "values": [{"measurement": "IC50", "setting": "A549 [1]", "result": 0.0066, "unit": "µM"}]}, {"smiles": "CCC(=O)NC[C@@]1(O)[C@H](OC(C)=O)[C@]2(CC)C=CCN3CC[C@@]4(c5cc([C@@]6(C(=O)OC)C[C@@H]7C=C(CC)CN(Cc8c6[nH]c6ccccc86)C7)c(OC)cc5N(C)[C@@H]14)[C@@H]32", "values": [{"measurement": "IC50", "setting": "A549 [1]", "result": 0.0156, "unit": "µM"}]}, {"smiles": "CCC1=C[C@@H]2CN(C1)Cc1c([nH]c3ccccc13)[C@@](C(=O)OC)(c1cc3c(cc1OC)N(C)[C@H]1[C@@](O)(CNC(=O)C(C)(C)C)[C@H](OC(C)=O)[C@]4(CC)C=CCN5CC[C@]31[C@@H]54)C2", "values": [{"measurement": "IC50", "setting": "A549 [1]", "result": 0.037, "unit": "µM"}]}, {"smiles": "CCC1=C[C@@H]2CN(C1)Cc1c([nH]c3ccccc13)[C@@](C(=O)OC)(c1cc3c(cc1OC)N(C)[C@H]1[C@@](O)(CNC(=O)c4ccc([N+](=O)[O-])cc4)[C@H](OC(C)=O)[C@]4(CC)C=CCN5CC[C@]31[C@@H]54)C2", "values": [{"measurement": "IC50", "setting": "A549 [1]", "result": 0.0411, "unit": "µM"}]}, {"smiles": "CCC1=C[C@@H]2CN(C1)Cc1c([nH]c3ccccc13)[C@@](C(=O)OC)(c1cc3c(cc1OC)N(C)[C@H]1[C@@](O)(CNC(=O)c4ccc(Cl)cc4)[C@H](OC(C)=O)[C@]4(CC)C=CCN5CC[C@]31[C@@H]54)C2", "values": [{"measurement": "IC50", "setting": "A549 [1]", "result": 0.0256, "unit": "µM"}]}, {"smiles": "CCC1=C[C@@H]2CN(C1)Cc1c([nH]c3ccccc13)[C@@](C(=O)OC)(c1cc3c(cc1OC)N(C)[C@H]1[C@@](O)(CNC(=O)Cc4ccccc4)[C@H](OC(C)=O)[C@]4(CC)C=CCN5CC[C@]31[C@@H]54)C2", "values": [{"measurement": "IC50", "setting": "A549 [1]", "result": 0.0162, "unit": "µM"}]}, {"smiles": "CCCC(=O)NC[C@@]1(O)[C@H](OC(C)=O)[C@]2(CC)C=CCN3CC[C@@]4(c5cc([C@@]6(C(=O)OC)C[C@@H]7C=C(CC)CN(Cc8c6[nH]c6ccccc86)C7)c(OC)cc5N(C)[C@@H]14)[C@@H]32", "values": [{"measurement": "IC50", "setting": "A549 [1]", "result": 0.0173, "unit": "µM"}]}, {"smiles": "CCC1=C[C@@H]2CN(C1)Cc1c([nH]c3ccccc13)[C@@](C(=O)OC)(c1cc3c(cc1OC)N(C)[C@H]1[C@@](O)(CNC(=O)C(C)C)[C@H](OC(C)=O)[C@]4(CC)C=CCN5CC[C@]31[C@@H]54)C2", "values": [{"measurement": "IC50", "setting": "A549 [1]", "result": 0.0114, "unit": "µM"}]}, {"smiles": "CCC1=C[C@@H]2CN(C1)Cc1c([nH]c3ccccc13)[C@@](C(=O)OC)(c1cc3c(cc1OC)N(C)[C@H]1[C@@](O)(CNC(=O)c4ccc(C(F)(F)F)cc4)[C@H](OC(C)=O)[C@]4(CC)C=CCN5CC[C@]31[C@@H]54)C2", "values": [{"measurement": "IC50", "setting": "A549 [1]", "result": 0.0207, "unit": "µM"}]}, {"smiles": "CCC1=C[C@@H]2CN(C1)Cc1c([nH]c3ccccc13)[C@@](C(=O)OC)(c1cc3c(cc1OC)N(C)[C@H]1[C@@](O)(CNC(=O)CC(C)C)[C@H](OC(C)=O)[C@]4(CC)C=CCN5CC[C@]31[C@@H]54)C2", "values": [{"measurement": "IC50", "setting": "A549 [1]", "result": 0.022, "unit": "µM"}]}, {"smiles": "CCC1=C[C@@H]2CN(C1)Cc1c([nH]c3ccccc13)[C@@](C(=O)OC)(c1cc3c(cc1OC)N(C)[C@H]1[C@@](O)(CNC(=O)c4ccncc4)[C@H](OC(C)=O)[C@]4(CC)C=CCN5CC[C@]31[C@@H]54)C2", "values": [{"measurement": "IC50", "setting": "A549 [1]", "result": 0.0081, "unit": "µM"}]}, {"smiles": "CCC1=C[C@@H]2CN(C1)Cc1c([nH]c3ccccc13)[C@@](C(=O)OC)(c1cc3c(cc1OC)N(C)[C@H]1[C@@](O)(CNC(=O)c4cccc(OC)c4)[C@H](OC(C)=O)[C@]4(CC)C=CCN5CC[C@]31[C@@H]54)C2", "values": [{"measurement": "IC50", "setting": "A549 [1]", "result": 0.0063, "unit": "µM"}]}, {"smiles": "CCC1=C[C@@H]2CN(C1)Cc1c([nH]c3ccccc13)[C@@](C(=O)OC)(c1cc3c(cc1OC)N(C)[C@H]1[C@@](O)(CNC(C)=O)[C@H](OC(C)=O)[C@]4(CC)C=CCN5CC[C@]31[C@@H]54)C2", "values": [{"measurement": "IC50", "setting": "A549 [1]", "result": 0.0245, "unit": "µM"}]}, {"smiles": "CCC1=C[C@@H]2CN(C1)Cc1c([nH]c3ccccc13)[C@@](C(=O)OC)(c1cc3c(cc1OC)N(C)[C@H]1[C@@](O)(CNC(=O)c4ccco4)[C@H](OC(C)=O)[C@]4(CC)C=CCN5CC[C@]31[C@@H]54)C2.O=C(O)C(O)C(O)C(=O)O", "values": [{"measurement": "Activity", "setting": "Mus musculus [2]", "result": 25.45, "unit": "g"}, {"measurement": "IC50", "setting": "A549 [1]", "result": 0.0032, "unit": "µM"}, {"measurement": "inhibition in vivo at 9 mg/kg", "setting": "A549 [3]", "result": 58, "unit": "%"}]}, {"smiles": "CCC1=C[C@@H]2CN(C1)Cc1c([nH]c3ccccc13)[C@@](C(=O)OC)(c1cc3c(cc1OC)N(C)[C@H]1[C@@](O)(CNC(=O)c4cccc(C)c4)[C@H](OC(C)=O)[C@]4(CC)C=CCN5CC[C@]31[C@@H]54)C2", "values": [{"measurement": "IC50", "setting": "A549 [1]", "result": 0.0172, "unit": "µM"}]}, {"smiles": "CCC1=C[C@@H]2CN(C1)Cc1c([nH]c3ccccc13)[C@@](C(=O)OC)(c1cc3c(cc1OC)N(C)[C@H]1[C@@](O)(CNC(=O)C4CC4)[C@H](OC(C)=O)[C@]4(CC)C=CCN5CC[C@]31[C@@H]54)C2.O=C(O)C(O)C(O)C(=O)O", "values": [{"measurement": "Ratio IC50", "setting": "A549 [5]", "result": 3}, {"measurement": "Activity", "setting": "Mus musculus [2]", "result": 26.53, "unit": "g"}, {"measurement": "IC50", "setting": "A549 [1]", "result": 0.003, "unit": "µM"}, {"measurement": "inhibition in vivo at 9 mg/kg", "setting": "A549 [3]", "result": 18, "unit": "%"}, {"measurement": "Activity", "setting": "Mus musculus [4]", "result": "Non-toxic"}]}, {"smiles": "CCC1=C[C@@H]2CN(C1)Cc1c([nH]c3ccccc13)[C@@](C(=O)OC)(c1cc3c(cc1OC)N(C)[C@H]1[C@@](O)(CNC(=O)c4ccccc4)[C@H](OC(C)=O)[C@]4(CC)C=CCN5CC[C@]31[C@@H]54)C2.O=C(O)C(O)C(O)C(=O)O", "values": [{"measurement": "Activity", "setting": "Mus musculus [2]", "result": 24.6, "unit": "g"}, {"measurement": "IC50", "setting": "A549 [1]", "result": 0.005, "unit": "µM"}, {"measurement": "inhibition in vivo at 9 mg/kg", "setting": "A549 [3]", "result": 43.5, "unit": "%"}, {"measurement": "Activity", "setting": "Mus musculus [4]", "result": "Non-toxic"}]}, {"smiles": "CCCCC(=O)NC[C@@]1(O)[C@H](OC(C)=O)[C@]2(CC)C=CCN3CC[C@@]4(c5cc([C@@]6(C(=O)OC)C[C@@H]7C=C(CC)CN(Cc8c6[nH]c6ccccc86)C7)c(OC)cc5N(C)[C@@H]14)[C@@H]32", "values": [{"measurement": "IC50", "setting": "A549 [1]", "result": 0.0221, "unit": "µM"}]}]}
